Laboratory results taken from patent US8138168B1 (Takeda Pharmaceutical Company Limited, priority 2007, dated 2012).
pIC50: −log10 of the molar value.

Biological target: T1, Recombinant human renin (Homo sapiens, UniProt P00797)
T1 construct: isolate the active form (residues 67-406); made in house; host or cells: FreeStyle 293-F cells (transient expression of pcDNA3.1(+)/hREN)
T1 sequence (P00797 67-406): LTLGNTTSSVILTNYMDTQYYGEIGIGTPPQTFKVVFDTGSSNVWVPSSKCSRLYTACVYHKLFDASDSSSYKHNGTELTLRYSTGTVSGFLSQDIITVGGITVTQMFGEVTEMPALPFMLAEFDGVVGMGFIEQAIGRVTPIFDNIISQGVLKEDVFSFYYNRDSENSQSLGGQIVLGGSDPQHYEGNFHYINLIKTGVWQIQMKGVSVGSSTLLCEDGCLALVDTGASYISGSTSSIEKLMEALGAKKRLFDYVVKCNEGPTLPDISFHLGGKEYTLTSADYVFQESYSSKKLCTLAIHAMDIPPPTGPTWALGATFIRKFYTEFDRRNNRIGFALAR
Assay: In vitro enzymatic activity assay of renin inhibitors (fluorogenic peptide substrate)
Assay type: biochemical
Conditions: read-out: IC50 of Exemplified Compounds Against Renin
Procedure: Test compounds in varying concentrations may be reacted with recombinant human renin in the presence of substrate, e.g., QXL520-γ-Abu-[…](HiLyteFluo488)-Arg-OH (Anaspec, San Jose, Calif.). […] Inhibition constants (IC50) may be calculated by non-linear curve fitting of the compound concentrations and fluorescence intensities to the standard IC50 equation.
Solutions of test compounds in varying concentrations mM final concentration) are prepared in dimethyl sulfoxide (DMSO) and then diluted into assay buffer comprising 50 mM Hepes, 1 mM EDTA, 1 mM DTT, 0.1 mg/mL BSA, 0.01% Brij35, pH 7.4. Alternatively, the assay can be performed with a high BSA concentration, wherein the buffer contains an additional 2% BSA.
Recombinant human renin (3 nM final concentration) is added to the dilutions and pre-incubated with the compounds for 10 minutes at 37° C. […] After pre-incubation, the reaction is initiated with of substrate QXL520-γ-Abu-[…](HiLyteFluo488)-Arg-OH (Anaspec, San Jose, Calif.). The final DMSO in the assay is 5%. The total volume of the reaction mixture is 20 μL, which can be placed on Greiner 384-well small volume plates.
The fluorescence intensity is determined upon the addition of substrate and determined again after incubation at 37° C. for one hour. The fluorescence intensity of a blank (no inhibition) using vehicle alone is also determined. Renin activity is linearly proportional to the change in fluorescence observed (final-initial).

Row | SMILES | pIC50
1 | N[C@@H](CC(=O)N1CCCC(c2nc3ccccc3[nH]2)C1)c1ccc([N+](=O)[O-])cc1 (stereo partly drawn) [Compound 33, (3S)-1-(3-(1H-benzo[d]imidazol-2-yl)piperidin-1-yl)-3-amino-3-(4-nitrophenyl)propan-1-one] | < 6.00
2 | COCCCn1c([C@@H]2CCCN(C(=O)[C@@H]3CN(S(=O)(=O)c4cc(C(F)(F)F)ccc4Cl)C[C@H]3N)C2)nc2ccccc21 [Compound 356, ((3R,4S)-4-amino-1-(2-chloro-5-(trifluoromethyl)phenylsulfonyl)pyrrolidin-3-yl)((R)-3-(1-(3-methoxypropyl)-1H-benzo[d]imidazol-2-yl)piperidin-1-yl)methanone] | 6.00 to 7.00
3 | COCCCn1c([C@@H]2CCCN(C(=O)[C@@H]3CN(C(=O)c4ccccc4C(=O)OC)C[C@H]3N)C2)nc2ccccc21 [Compound 424, methyl 2-((3S,4R)-3-amino-4-((R)-3-(1-(3-methoxypropyl)-1H-benzo[d]imidazol-2-yl)piperidine-1-carbonyl)pyrrolidine-1-carbonyl)benzoate] | < 6.00
4 | COCCCn1c([C@@H]2CCCN(C(=O)[C@@H]3CN(S(=O)(=O)c4ccccc4OC)C[C@H]3N)C2)nc2ccccc21 [Compound 379, ((3R,4S)-4-amino-1-(2-methoxyphenylsulfonyl)pyrrolidin-3-yl)((R)-3-(1-(3-methoxypropyl)-1H-benzo[d]imidazol-2-yl)piperidin-1-yl)methanone] | 6.00 to 7.00
5 | O=C(Nc1ccc2ccccc2c1)N1CCCC(c2nc3ccccc3[nH]2)C1 (stereo not drawn) [Compound 4, 3-(1H-benzo[d]imidazol-2-yl)-N-(naphthalen-2-yl)piperidine-1-carboxamide] | < 6.00
6 | COCCCn1c([C@@H]2CCCN(C(=O)[C@@H]3CN(C(=O)Nc4ccccc4Cl)C[C@H]3N)C2)nc2ccccc21 [Compound 389, (3S,4R)-3-amino-N-(2-chlorophenyl)-4-((R)-3-(1-(3-methoxypropyl)-1H-benzo[d]imidazol-2-yl)piperidine-1-carbonyl)pyrrolidine-1-carboxamide] | < 6.00
7 | COCCCn1c([C@@H]2CCCN(C(=O)[C@@H]3CN(C(=O)c4ccccc4OC)C[C@H]3N)C2)nc2ccccc21 [Compound 387, ((3R,4S)-4-amino-1-(2-methoxybenzoyl)pyrrolidin-3-yl)((R)-3-(1-(3-methoxypropyl)-1H-benzo[d]imidazol-2-yl)piperidin-1-yl)methanone] | < 6.00
8 | Cc1ccccc1C[C@@H](N)CC(=O)N1CCCC(c2nc3ccccc3[nH]2)C1 (stereo partly drawn) [Compound 42, (3R)-1-(3-(1H-benzo[d]imidazol-2-yl)piperidin-1-yl)-3-amino-4-o-tolylbutan-1-one] | < 6.00
9 | COCCCn1c([C@@H]2CCCN(C(=O)C[C@H](N)CNC(=O)NCCc3cc(OC)ccc3OC)C2)nc2ccccc21 [Compound 322, 1-((S)-2-amino-4-((R)-3-(1-(3-methoxypropyl)-1H-benzo[d]imidazol-2-yl)piperidin-1-yl)-4-oxobutyl)-3-(2,5-dimethoxyphenethyl)urea] | 6.00 to 7.00
10 | CC(=O)NCCn1c([C@@H]2CCCN(C(=O)C[C@H](N)Cc3ccc(-c4ccc5oc(=O)[nH]c5c4)cc3)C2)nc2ccccc21 [Compound 467, N-(2-(2-((R)-1-((R)-3-amino-4-(4-(2-oxo-2,3-dihydrobenzo[d]oxazol-5-yl)phenyl)butanoyl)piperidin-3-yl)-1H-benzo[d]imidazol-1-yl)ethyl)acetamide] | 6.00 to 7.00
11 | COCCCn1c([C@@H]2CCCN(C(=O)[C@@H]3CN(C(=O)c4cccc(Oc5ccccc5)c4)C[C@H]3N)C2)nc2ccccc21 [Compound 358, ((3R,4S)-4-amino-1-(3-phenoxybenzoyl)pyrrolidin-3-yl)((R)-3-(1-(3-methoxypropy1)-1H-benzo[d]imidazol-2-yl)piperidin-1-yl)methanone] | 6.00 to 7.00
12 | COCCCn1c([C@@H]2CCCN(C(=O)[C@@H]3CN(S(=O)(=O)c4cccc(OC)c4)C[C@H]3N)C2)nc2ccccc21 [Compound 357, ((3R,4S)-4-amino-1-(3-methoxyphenylsulfonyl)pyrrolidin-3-yl)((R)-3-(1-(3-methoxypropyl)-1H-benzo[d]imidazol-2-yl)piperidin-1-yl)methanone] | 6.00 to 7.00
13 | COCCCn1c([C@@H]2CCCN(C(=O)C[C@H](N)CNC(=O)Nc3ccccc3Oc3ccccc3)C2)nc2ccccc21 [Compound 272, 1-((S)-2-amino-4-((R)-3-(1-(3-methoxypropyl)-1H-benzo[d]imidazol-2-yl)piperidin-1-yl)-4-oxobutyl)-3-(2-phenoxyphenyl)urea] | 6.00 to 7.00
14 | COCCCn1c([C@@H]2CCCN(C(=O)[C@@H]3CN(C(=O)c4ccc(C(=O)OC)cc4)C[C@H]3N)C2)nc2ccccc21 [Compound 422, methyl 4-((3S,4R)-3-amino-4-((R)-3-(1-(3-methoxypropyl)-1H-benzo[d]imidazol-2-yl)piperidine-1-carbonyl)pyrrolidine-1-carbonyl)benzoate] | < 6.00

Second part, the molecule after the results:

Row | pIC50 | SMILES
15 | > 7.00 | COCCCn1c([C@@H]2CCCN(C(=O)C[C@H](N)Cc3ccc(-c4ccccc4)cc3)C2)nc2cccc(Cl)c21 [Compound 98, (R)-3-amino-4-(biphenyl-4-yl)-1-((R)-3-(7-chloro-1-(3-methoxypropyl)-1H-benzo[d]imidazol-2-yl)piperidin-1-yl)butan-1-one]
16 | 6.00 to 7.00 | COCCCn1c([C@@H]2CCCN(C(=O)C[C@H](N)CNC(=O)Nc3ccccc3SC)C2)nc2ccccc21 [Compound 284, 1-((S)-2-amino-4-((R)-3-(1-(3-methoxypropyl)-1H-benzo[d]imidazol-2-yl)piperidin-1-yl)-4-oxobutyl)-3-(2-(methylthio)phenyl)urea]
17 | 6.00 to 7.00 | NC(=O)CCn1c([C@@H]2CCCN(C(=O)C[C@H](N)Cc3ccc(-c4ccc(N)nc4)cc3)C2)nc2ccccc21 [Compound 480, 3-(2-((R)-1-((R)-3-amino-4-(4-(6-aminopyridin-3-yl)phenyl)butanoyl)piperidin-3-yl)-1H-benzo[d]imidazol-1-yl)propanamide]
18 | 6.00 to 7.00 | COCCCn1c([C@@H]2CCCN(C(=O)C[C@H](N)CNC(=O)c3ccc(Cl)c(Cl)c3)C2)nc2ccccc21 [Compound 262, N-((S)-2-amino-4-((R)-3-(1-(3-methoxypropyl)-1H-benzo[d]imidazol-2-yl)piperidin-1-yl)-4-oxobutyl)-3,4-dichlorobenzamide]
19 | < 6.00 | COCCCn1c([C@@]2(O)CCCN(C(=O)C[C@H](N)Cc3ccc(Cl)cc3)C2)nc2ccccc21 [Compound 248, (R)-3-amino-4-(4-chlorophenyl)-1((R)-3-hydroxy-3-(1-(3-methoxypropyl)-1H-benzo[d]imidazol-2-yl)piperidin-1-yl)butan-1-one]
20 | > 7.00 | COCCCn1c([C@@H]2CCCN(C(=O)C[C@H](N)CNC(=O)Nc3cccc(Cl)c3)C2)nc2ccccc21 [Compound 256, 1-((S)-2-ainino-4-((R)-3-(1-(3-methoxypropyl)-1H-benzo[d]imidazol-2-yl)piperidin-1-yl)-4-oxobutyl)-3-(3-chlorophenyl)urea]
21 | > 7.00 | COCCCn1c([C@@H]2CCCN(C(=O)C[C@H](N)Cc3ccc(-c4ccc(C(=O)N5CC[C@@H](O)C5)cc4)cc3)C2)nc2ccccc21 [Compound 185, (R)-3-amino-4-(4′-((R)-3-hydroxypyrrolidine-1-carbonyl)biphenyl-4-yl)-1-((R)-3-(1-(3-methoxypropyl)-1H-benzo[d]imidazol-2-yl)piperidin-1-yl)butan-1-one]
22 | < 6.00 | COCCCn1c(C2CCCN(C(=O)C[C@H](N)Cc3ccc4ccccc4c3)C2)nc2ccc(Cl)nc21 (stereo partly drawn) [Compound 102, (R)-3-amino-1-(3-(5-chloro-3-(3-methoxypropyl)-3H-imidazo[4,5-b]pyridin-2-yl)piperidin-1-yl)-4-(naphthalen-2-yl)butan-1-one]
23 | 6.00 to 7.00 | COCCCn1c([C@@H]2CCCN(C(=O)C[C@H](N)Cc3ccc(N4CCC(CO)CC4)cc3)C2)nc2ccccc21 [Compound 235, (R)-3-amino-4-(4-(4-(hydroxymethyl)piperidin-1-yl)phenyl)-1-((R)-3-(1-(3-methoxypropyl)-1H-benzo[d]imidazol-2-yl)piperidin-1-yl)butan-1-one]
24 | > 7.00 | COCCCn1c([C@@H]2CCCN(C(=O)C[C@H](N)Cc3ccc(-n4ccnc4)cc3)C2)nc2ccccc21 [Compound 208, (R)-4-(4-(1H-imidazol-1-yl)phenyl)-3-amino-1-((R)-3-(1-(3-methoxypropyl)-1H-benzo[d]imidazol-2-yl)piperidin-1-yl)butan-1-one]
